In one assay the target is T1, mOR256-3 (Mus musculus, UniProt Q0VEF0).
T1 construct: gene Olfr124; full-length receptor from Dr H. Matsunami, expressed in Hana3A cells; surface detected by antirhodopsin antibody
T1 sequence (Q0VEF0 1-315): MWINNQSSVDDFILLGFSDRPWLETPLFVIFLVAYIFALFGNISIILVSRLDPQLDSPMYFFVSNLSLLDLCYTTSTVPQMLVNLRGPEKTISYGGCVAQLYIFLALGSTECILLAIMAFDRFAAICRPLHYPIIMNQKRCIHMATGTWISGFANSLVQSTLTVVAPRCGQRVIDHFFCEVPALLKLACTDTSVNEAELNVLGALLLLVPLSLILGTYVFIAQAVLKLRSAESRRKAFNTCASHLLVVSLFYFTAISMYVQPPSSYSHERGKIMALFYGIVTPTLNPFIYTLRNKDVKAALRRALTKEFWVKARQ
Kind of assay: CRE-luciferase cAMP reporter in Hana3A cells, inhibition of odorant response. The following applies: antagonist against R-carvone, coumarin and geraniol. It counts as cell-based.
Take `O=Cc1ccccc1` [benzaldehyde]: the “CRE-luciferase cAMP reporter in Hana3A cells, inhibition of odorant response” value was “Benzaldehyde antagonized R-carvone, coumarin, and geraniol”.

The next assay deals with T1, mOR256-3. Kind of assay: CRE-luciferase cAMP reporter in Hana3A cells, dose-response fit. The following applies: agonist; 4 h, 37 °C, 5% CO2. It is filed as cell-based.
Consider `CCCCCCCC(=O)O` [octanoic acid], for which the EC50 result is “Ten odorants activated mOR256-3 in a dose-dependent manner”.

For the compound `CCCCCCCC=O` [octanal], the EC50 entry is listed as “Ten odorants activated mOR256-3 in a dose-dependent manner”. On the same count and under the same terms, to `C=C(C)[C@@H]1CC=C(C)C(=O)C1` [R-carvone] belongs “Ten odorants activated mOR256-3 in a dose-dependent manner”. Take `O=c1ccc2ccccc2o1` [coumarin]: the EC50 result is “Ten odorants activated mOR256-3 in a dose-dependent manner”.

As to `CCCCCC(C)=O` [2-heptanone], the EC50 entry was “Ten odorants activated mOR256-3 in a dose-dependent manner”. The same measure, in the same setting: to `C=CCOC(=O)Cc1ccccc1` [allyl phenylacetate] belongs “Ten odorants activated mOR256-3 in a dose-dependent manner”; to `CC(C)=CCC/C(C)=C/CO` [geraniol], “Ten odorants activated mOR256-3 in a dose-dependent manner”; to `CCCCCCCCO` [1-octanol], “Ten odorants activated mOR256-3 in a dose-dependent manner”. Same read-out and setting: to `CC(=O)OCc1ccccc1` [benzyl acetate] belongs “Ten odorants activated mOR256-3 in a dose-dependent manner”.

The same assay, now with this note: agonist; 4 h, 37 °C, 5% CO2; E/Z composition of citral not stated.
Regarding `CC(C)=CCCC(C)=CC=O` [citral], the EC50 entry is reported as “Ten odorants activated mOR256-3 in a dose-dependent manner”.

The record behind these values is paper PMC9442423, “Extracellular loop 2 of G protein–coupled olfactory receptors is critical for odorant recognition” (The Journal of Biological Chemistry, 2022).
